Our source for the MIC and inhibition values is patent EP4644391A1, “NOVEL PHENYLQUINOLONE COMPOUND HAVING ANTIBACTERIAL AND ANTICANCER FUNCTIONS, AND PREPARATION THEREOF” (Alphamol Science Ltd (Shanghai), priority 2022, dated 2024).

What all share (assay type): cell-based
The test system of one experiment is S. aureus ATCC 43300. Put plainly: In vitro antibacterial activity assay (MIC, broth dilution). Particulars: Staphylococcus aureus. The text has this: (§1) The method used to indicate the activity of the compounds in this example is to record the minimum inhibitory concentration (MIC) of the compounds against bacteria. The specific experimental method is as follows: • 1. The bacterial liquid cultured from a single colony was taken, and diluted into autoclaved CAMHB broth in a ratio of 1:1000, and mixed well. • 2. The prepared drug solution was filtered through a sterile 0.22µm syringe filter and placed in a sterile EP tube for later use. • 3. A 96-well plate was taken, and 20µL of drug solution (400µg/mL) was added to each well in the first column of the 96-well plate. Then, 180µL of diluted bacterial liquid was added and mixed well (Perform 3 replicate rows for each drug). The same process was performed for the hydrochloride drug. • 4. 100 µL of diluted bacterial liquid was added to each well in the remaining 11 columns of the 96-well plate. Drugs are the same as above. • 5. Serial dilution: 100µL of liquid was taken from the first column to the second column, mixed well, then 100µL of liquid was taken from the second column to the third column, mixed well, and so on, sequentially diluting down to the last column (column 12). After mixing column 12 well, 100µL of liquid thereof was discarded. The drug concentration in each well was decreased by two-fold serially (the concentration in the first well is 40µg/mL). • 6. Blank CAMHB broth without added bacteria liquid was added to 3 blank wells in the 96-well plate, as negative control. • 7. The diluted bacterial liquid was added to 3 blank wells in the 96-well plate, as positive control. • 8. Incubated at 37°C for 16 hours. • 9. Results reading: the minimum inhibitory concentration is the minimum drug concentration at which no bacterial growth is visible to the naked eye and without turbidity.
(In broth dilution the organism is exposed to a series of concentrations in liquid medium.)

A further experiment has as its system E. feacium ATCC 700221. The description is as above. Conditions: read-out: G+ bacteria MIC E. feacium ATCC 700221.
Excerpt: as §1

Another experiment deals with Hela. As to the kind of experiment: In vitro anticancer activity test (MTT cell proliferation assay). Particulars: Homo sapiens, average proliferation inhibition rate at the dosage of 40 µM. How it is done: The anticancer activity of the compounds was tested using an in vitro cancer cell tests. The specific test method is as follows: • 1. Cell recovery and culture method: the cryovial was taken out from the liquid nitrogen container firstly, soaked directly in 37°C warm water, and shaked from time to time to let it thaw as soon as possible. Then, the cryovial was transferred to a clean bench, and the lid was open. The cell suspension was taken into a centrifuge tube using a rubber-tipped dropper and more than 10 times the culture medium was added, mixed well, and centrifuged at 50g for 5 minutes. Then, the supernatant was discarded, complete culture medium containing 10% fetal bovine serum was added to resuspend the cells, the cells was counted, the cell density was adjusted, and then inoculated into a culture bottle. The culture bottle was placed in a cell culture incubator at 5% CO2 and 37°C. The complete culture medium was replaced once the next day and the culture was continued. • 2. Cell passaging method: adherent cells in the logarithmic growth phase were placed in a clean bench, the original culture medium was discarded, and washed three times with 1×PBS. An appropriate amount of 0.25% trypsin digestion solution was added to moisten the cells, and then the trypsin solution was aspirated. The cells were placed in a cell culture incubator at 5% CO2 and 37°C for digestion for a suitable time, and observed under a microscope. When 90% of the cells become round, the cells were moved immediately to the clean bench and complete culture medium was added to terminate digestion. Then, the cells were dislodged by pipetting up and down with a rubber-tipped dropper to single cells. The cells were counted, and the cell density was adjusted. The cells were inoculated into a suitable culture bottle or dish, added enough complete culture medium, and placed in a cell culture incubator at 5% CO2 and 37°C for static culture. For suspension cells in the logarithmic phase, the original culture medium was directly centrifuged at 50g for 5 minutes, the supernatant was discarded, and the cells were washed once with PBS and centrifuged. After discarding the supernatant, the complete culture medium was added and the cells were dispersed using a rubber-tipped dropper. The cells are counted, and the cell density was adjusted. The cells were inoculated into appropriate culture bottles or culture dishes, and sufficient complete culture medium was added, and the cells were cultured in a cell culture incubator at 5% CO2 and 37°C. • 3. Cell proliferation assay: cells in good state in logarithmic phase were taken and appropriate amount of the cells was inoculated into 96-well plates according to the cell passage treatment method, with each well containing 180 µL complete medium. After the cells growth was recovered and the number of cells in each well is 5000±500, a drug was added for treatment. After drug treatment during the experimental time, MTT solution with a final concentration of 0.5 mg/mL was added to each well, and placed in a cell culture incubator at 5% CO2 and 37°C to allow a fully reaction of MTT with cells. After 4 hours, the solution in the 96-well plate was discarded, 100 µL of DMSO was added, and shaked to dissolve the formazan precipitated at the bottom of the plate, and the absorbance value of samples was detected at a wavelength of 570 nm using a microplate reader. Calculation method of cell viability rate: Viability rate = A sample group÷A control group × 100% [formula] • 4. Cell photography step: cells in good state in logarithmic phase were taken and an appropriate amount of cells was inoculated into 96-well plates according to the cell passage treatment method, with each well containing 180 µL complete medium. After the cells growth was recovered and the number of cells in each well is 5000 ± 500, a drug was added for treatment. […]
A general note: Formazan colour is commonly taken as a measure of viable cells.

The test system of another experiment is E. coli ATCC 25922. As to the kind of experiment: In vitro antibacterial activity assay (MIC, broth dilution). Conditions: Escherichia coli, ATCC25922; Table 3; read-out: E. coli ATCC 25922 MIC.
Excerpt: as §1

[1] abbreviates: ATCC43300, Table 3, read-out: S. aureus ATCC 43300 MIC.
The mark [2] stands for this setting: ATCC43300, Table 1, 37°C, 16 hours, read-out: G+ bacteria MIC S. aureus ATCC 43300.

Structures are written as SMILES. Values after ≈ are worked out from the molar mass of the structure shown. Where two headings read alike, the source gives them in different places. Some results are limits rather than exact numbers.

By MIC is commonly meant the least concentration at which growth counts as inhibited. By inhibition is commonly meant the percentage by which the read-out fell short of the control. Low readings indicate a response near the control, high ones a response far below the control.

As for `O=C(O)c1cn(C2CC2)c2cc(-c3ccc(S(=O)(=O)NCCCl)cc3)c(F)cc2c1=O` [Example 10, 7-(4-(N-(2-chloroethyl)sulfamoyl)phenyl)-1-cyclopropyl-6-fluoro-4-oxo-1,4-dihydroquinolin-3-carboxylic acid], the minimum inhibitory concentration (MIC) in the experiment with S. aureus ATCC 43300 (ATCC43300, 16 h, read-out: G+ bacteria MIC S. aureus ATCC 43300) was not above 0.1 mg/L; with E. feacium ATCC 700221 (16 h), more than 8 mg/L.

In the experiment with Hela, `CCCCCCCNS(=O)(=O)c1ccc(-c2cc3c(cc2F)c(=O)c(C(=O)O)cn3-c2ccc(F)cc2)cc1` [Example 12, 6-fluoro-1-(4-fluorophenyl)-7-(4-(N-heptylsulfamoyl)phenyl)-4-oxo-1,4-dihydroquinolin-3-carboxylic acid] had an inhibition at 40 µM not below 50%. Besides, the results for the MIC in the experiment with E. coli ATCC 25922 and in the experiment on S. aureus ATCC 43300 (setting [1]) were not below 1 mg/L and not above 1 mg/L, respectively.

On to `CCCNS(=O)(=O)c1ccc(-c2c(F)cc3c(=O)c(C(=O)O)cn(C4CC4)c3c2Cl)cn1` [Example 15, 8-chloro-1-cyclopropyl-6-fluoro-4-oxo-7-(6-(N-propylsulfamoyl)pyridin-3-yl)-1,4-dihydroquinolin-3-carboxylic acid], for which the MIC in the experiment with S. aureus ATCC 43300 (setting [2]) was not above 0.1 mg/L; in the experiment with E. feacium ATCC 700221 (Table 1, 37°C, 16 hours), more than 8 mg/L.

In the experiment on Hela, `CCCCCCCNS(=O)(=O)c1ccc(-c2cc3c(cc2F)c(=O)c(C(=O)O)cn3-c2ccc(F)cn2)cc1` [Example 19, 6-fluoro-1-(5-fluoropyridin-2-yl)-7-(4-(N-heptylsulfamoyl)phenyl)-4-oxo-1,4-dihydroquinolin-3-carboxylic acid] returned an inhibition at 40 µM not below 50%. Besides, the minimal inhibitory concentration (MIC) is not below 1 mg/L in the experiment with E. coli ATCC 25922 and not above 1 mg/L in the experiment with S. aureus ATCC 43300 (setting [1]).

On to `O=C(O)c1cn(C2CC2)c2c([N+](=O)[O-])c(-c3ccc(NC(=O)C(F)(F)F)c([N+](=O)[O-])c3)c(F)cc2c1=O` [Example 32], for which the MIC with S. aureus ATCC 43300 (setting [2]) was not above 0.1 mg/L; in the experiment with E. feacium ATCC 700221 (Table 1, 37°C, 16 hours), 1 to 8 mg/L (≈ 1.91 to 15.3 µM).

`CC(C)(C)OC(=O)Nc1ccc(-c2cc3c(cc2F)c(=O)c(C(=O)O)cn3C2CC2)cc1[N+](=O)[O-]` [Example 40]: the inhibition at 40 µM in the experiment with Hela is not below 50%. The minimum inhibitory concentration (MIC) with E. coli ATCC 25922 was not below 1 mg/L; with S. aureus ATCC 43300 (setting [1]), not above 1 mg/L.

As to `Cc1c(-c2ccc(C(=O)NCC(C)(C)C)c(N)c2)c(F)cc2c(=O)c(C(=O)O)cn(C3CC3)c12` [Example 49], the MIC is not above 0.1 mg/L in the experiment with S. aureus ATCC 43300 (setting [2]) and 1 to 8 mg/L (≈ 2.15 to 17.2 µM) in the experiment with E. feacium ATCC 700221 (Table 1, 37°C, 16 hours).

In turn, `Nc1ccc(-c2c(F)cc3c(=O)c(C(=O)NO)cn(C4CC4)c3c2Cl)cc1[N+](=O)[O-]` [Example 64] had an inhibition at 40 µM in the experiment on Hela not below 20%. The values for the minimum inhibitory concentration (MIC) in the experiment with E. coli ATCC 25922 and in the experiment with S. aureus ATCC 43300 (setting [1]) were not below 1 mg/L and not above 1 mg/L, respectively.

As for `COc1cc(-c2cc3c(cc2F)c(=O)c(C(=O)O)cn3C2CC2)ccc1NC(=O)C(C)(C)C` [Example 65], in the experiment on Hela, the inhibition at 40 µM is not below 50%. Also, the figures for the MIC in the experiment with E. coli ATCC 25922 and in the experiment on S. aureus ATCC 43300 (setting [1]) were not below 1 mg/L and not above 1 mg/L, respectively.

Regarding `CCCCCCCNS(=O)(=O)c1ccc(-c2cc3c(cc2F)c(=O)c(C(=O)O)cn3C2CC2)cc1` [Example 101], the inhibition at 40 µM with Hela is not below 50%. Besides, the MIC is not below 1 mg/L in the experiment with E. coli ATCC 25922 and not above 1 mg/L with S. aureus ATCC 43300 (setting [1]).

Consider `CCCCCCCNS(=O)(=O)c1ccc(-c2cc3c(cc2F)c(=O)c(C(=O)O)cn3C2CC2)cc1C(F)(F)F` [Example 132], for which the inhibition at 40 µM with Hela was not below 20%. Further, the MIC in the experiment with E. coli ATCC 25922 is not below 1 mg/L; with S. aureus ATCC 43300 (setting [1]), not above 1 mg/L.

On to `COc1c(-c2ccc(N)c([N+](=O)[O-])c2)c(F)cc2c(=O)c(C(=O)NO)cn(C3CC3)c12` [Example 138], for which the inhibition at 40 µM in the experiment on Hela was not below 50%. Moreover, the values for the MIC in the experiment on E. coli ATCC 25922 and with S. aureus ATCC 43300 (setting [1]) were not below 1 mg/L and not above 1 mg/L, respectively.
